Source: patent US10039753B2, “Imidazo[4,5-c]quinoline and imidazo[4,5-c][1,5]naphthyridine derivatives as LRRK2 inhibitors” (Pfizer Inc., priority 2015, dated 2018)
Where a name gives a salt, the structure may show the parent alone.

Key:
[1] = target: T1, GST-tagged truncated LRRK2 (Homo sapiens, UniProt Q5S007); experiment: LRRK2 Assay, Format 2 (Lantha Screen), WT; type: biochemical; settings: geometric mean of 2-4 determinations unless otherwise indicated (a: >=5; b: single determination)
T1 construct: GST-tagged truncated LRRK2 from Invitrogen (Cat # PV4874); GST; purchased Invitrogen PV4874

[2] = target: mutant G2019S LRRK2 (Homo sapiens, UniProt Q5S007, G2019S); experiment: LRRK2 Assay, Format 2 (Lantha Screen), G2019S mutant; type: biochemical; design: purchased Invitrogen PV4881; settings: geometric mean of 2-4 determinations unless otherwise indicated (a: >=5; b: single determination); read-out: LRRK2, Format 2 G2019S IC50
mutant G2019S LRRK2, sequence (Q5S007 970-2527 G2019S limits assumed): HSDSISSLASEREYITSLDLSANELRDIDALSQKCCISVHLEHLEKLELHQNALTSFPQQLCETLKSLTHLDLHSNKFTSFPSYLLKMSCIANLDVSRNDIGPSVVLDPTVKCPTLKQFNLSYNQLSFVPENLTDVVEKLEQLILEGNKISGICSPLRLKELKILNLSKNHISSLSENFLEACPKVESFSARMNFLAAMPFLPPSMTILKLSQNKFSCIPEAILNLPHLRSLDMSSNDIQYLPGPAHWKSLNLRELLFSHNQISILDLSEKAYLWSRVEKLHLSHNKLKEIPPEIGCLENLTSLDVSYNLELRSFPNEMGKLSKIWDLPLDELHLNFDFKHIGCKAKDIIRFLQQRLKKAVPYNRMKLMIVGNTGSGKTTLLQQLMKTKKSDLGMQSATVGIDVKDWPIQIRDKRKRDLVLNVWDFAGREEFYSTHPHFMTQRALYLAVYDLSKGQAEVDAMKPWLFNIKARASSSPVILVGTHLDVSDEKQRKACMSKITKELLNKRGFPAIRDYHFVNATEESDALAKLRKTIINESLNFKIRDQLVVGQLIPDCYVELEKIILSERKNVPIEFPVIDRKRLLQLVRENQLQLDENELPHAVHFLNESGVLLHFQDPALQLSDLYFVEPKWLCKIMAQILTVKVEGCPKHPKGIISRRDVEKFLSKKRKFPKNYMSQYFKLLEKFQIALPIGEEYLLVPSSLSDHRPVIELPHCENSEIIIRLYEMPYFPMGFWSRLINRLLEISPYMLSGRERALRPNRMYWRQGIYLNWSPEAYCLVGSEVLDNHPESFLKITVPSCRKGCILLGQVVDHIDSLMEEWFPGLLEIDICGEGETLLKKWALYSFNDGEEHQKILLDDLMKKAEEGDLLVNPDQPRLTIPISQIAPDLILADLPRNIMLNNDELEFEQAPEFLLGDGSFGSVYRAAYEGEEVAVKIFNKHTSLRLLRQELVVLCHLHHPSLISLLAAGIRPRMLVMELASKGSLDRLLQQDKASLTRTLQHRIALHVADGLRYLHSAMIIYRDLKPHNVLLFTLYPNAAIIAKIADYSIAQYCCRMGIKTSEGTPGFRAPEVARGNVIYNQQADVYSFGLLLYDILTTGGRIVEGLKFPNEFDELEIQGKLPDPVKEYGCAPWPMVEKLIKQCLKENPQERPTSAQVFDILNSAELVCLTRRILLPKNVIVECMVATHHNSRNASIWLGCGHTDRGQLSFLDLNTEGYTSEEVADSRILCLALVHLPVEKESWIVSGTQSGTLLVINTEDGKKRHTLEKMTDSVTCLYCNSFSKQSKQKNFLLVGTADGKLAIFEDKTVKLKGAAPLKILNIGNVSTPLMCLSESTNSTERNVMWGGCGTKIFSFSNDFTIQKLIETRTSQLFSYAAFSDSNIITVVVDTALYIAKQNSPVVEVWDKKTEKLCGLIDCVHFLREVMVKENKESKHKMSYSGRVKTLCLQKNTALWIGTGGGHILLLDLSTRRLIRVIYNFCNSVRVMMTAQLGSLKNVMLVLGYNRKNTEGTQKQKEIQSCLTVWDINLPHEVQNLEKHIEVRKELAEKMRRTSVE

T1 sequence (Q5S007 970-2527 limits assumed): as the sequence (Q5S007 970-2527 G2019S limits assumed) above, with S1050G counted along it

Compound	IC50 [1]	IC50 [2]
CO[C@H]1C[C@@H](n2c(Cn3cc(C)cn3)nc3cnc4ccc(Cl)cc4c32)C1 [Example 180, 8-chloro-1-[(1s,3s)-3-methoxycyclobutyl]-2-[(4-methyl-1H-pyrazol-1-yl)methyl]-1H-imidazo[4,5-c]quinoline]	30.4 nM	29.9 nM
CO[C@H]1C[C@@H](n2c(Cn3cc(C)nn3)nc3cnc4ccc(Cl)cc4c32)C1 [Example 183, 8-chloro-1-[(1s,3s)-3-methoxycyclobutyl]-2-[(4-methyl-1H-1,2,3-triazol-1-yl)methyl]-1H-imidazo[4,5-c]quinoline]	33.8 nM	30.8 nM
CCC(F)(F)Cn1c(Cc2cnccn2)nc2cnc3ccc(Cl)cc3c21 [Example 184, 8-chloro-1-(2,2-difluorobutyl)-2-(pyrazin-2-ylmethyl)-1H-imidazo[4,5-c]quinoline]	34.3 nM	22.8 nM
CCC(F)(F)Cn1c(Cn2cc(C)nn2)nc2cnc3ccc(Cl)cc3c21 [Example 186, 8-chloro-1-(2,2-difluorobutyl)-2-[(4-methyl-1H-1,2,3-triazol-1-yl)methyl]-1H-imidazo[4,5-c]quinoline]	22.5 nM	16.4 nM
Cc1cn(Cc2nc3cnc4ccc(Cl)cc4c3n2C2CCC2(F)F)nn1 (centres unmarked) [Example 187, 8-chloro-1-(2,2-difluorocyclobutyl)-2-[(4-methyl-1H-1,2,3-triazol-1-yl)methyl]-1H-imidazo[4,5-c]quinoline]	28.1 nM	33.3 nM
C[C@@H]1C[C@H](n2c(Cc3cc(CF)on3)nc3cnc4ccc(C#N)cc4c32)CCO1 [Example 189, 2-{[5-(fluoromethyl)-1,2-oxazol-3-yl]methyl}-1-[(2R,4R)-2-methyltetrahydro-2H-pyran-4-yl]-1H-imidazo[4,5-c]quinoline-8-carbonitrile, trifluoroacetate salt]	5.04 nM	3.54 nM
Cc1cnn(Cc2nc3cnc4ccc(C#N)cc4c3n2[C@H]2CCN(C)C2)c1 [Example 190, 2-[(4-methyl-1H-pyrazol-1-yl)methyl]-1-[(3S)-1-methylpyrrolidin-3-yl]-1H-imidazo[4,5-c]quinoline-8-carbonitrile]	26.6 nM	26.2 nM
C[C@@H]1C[C@H](n2c(Cc3cnns3)nc3cnc4ccc(Cl)cc4c32)CCO1 [Example 193, 8-chloro-1-[(2R,4R)-2-methyltetrahydro-2H-pyran-4-yl]-2-(1,2,3-thiadiazol-5-ylmethyl)-1H-imidazo[4,5-c]quinoline]	37.3 nM	32.6 nM
Cc1cnn(Cc2nc3cnc4ccc(C#N)cc4c3n2[C@@H]2CCN(C)C2)c1 [Example 194, 2-[(4-methyl-1H-pyrazol-1-yl)methyl]-1-[(3R)-1-methylpyrrolidin-3-yl]-1H-imidazo[4,5-c]quinoline-8-carbonitrile]	19.9 nM	25.1 nM
C[C@@H]1C[C@H](n2c(Cc3csnn3)nc3cnc4ccc(C#N)cc4c32)CCO1 [Example 195, 1-[(2R,4R)-2-methyltetrahydro-2H-pyran-4-yl]-2-(1,2,3-thiadiazol-4-ylmethyl)-1H-imidazo[4,5-c]quinoline-8-carbonitrile]	3.46 nM	2.28 nM
Cc1cnn(Cc2nc3cnc4ccc(F)cc4c3n2[C@@H]2CCO[C@H](C)C2)c1 [Example 198, 8-fluoro-2-[(4-methyl-1H-pyrazol-1-yl)methyl]-1-[(2R,4R)-2-methyltetrahydro-2H-pyran-4-yl]-1H-imidazo[4,5-c]quinoline]	15.2 nM	16.8 nM
Cc1cn(Cc2nc3cnc4ccc(F)cc4c3n2[C@@H]2CCO[C@H](C)C2)nn1 [Example 199, 8-fluoro-1-[(2R,4R)-2-methyltetrahydro-2H-pyran-4-yl]-2-[(4-methyl-1H-1,2,3-triazol-1-yl)methyl]-1H-imidazo[4,5-c]quinoline]	10.3 nM	11.8 nM
Cc1cc(Cc2nc3cnc4ccc(F)cc4c3n2[C@@H]2CCO[C@H](C)C2)no1 [Example 200, 8-fluoro-2-[(5-methyl-1,2-oxazol-3-yl)methyl]-1-[(2R,4R)-2-methyltetrahydro-2H-pyran-4-yl]-1H-imidazo[4,5-c]quinoline]	12.4 nM	14.3 nM
Cc1cnc(Cc2nc3cnc4ccc(C#N)cc4c3n2[C@@H]2CCO[C@H](C)C2)s1 [Example 205, 1-[(2R,4R)-2-methyltetrahydro-2H-pyran-4-yl]-2-[(5-methyl-1,3-thiazol-2-yl)methyl]-1H-imidazo[4,5-c]quinoline-8-carbonitrile]	6.52 nM	6.09 nM
Cc1nnn(Cc2nc3cnc4ccc(Cl)cc4c3n2[C@@H]2CCO[C@H](C)C2)n1 [Example 206, 8-chloro-1-[(2R,4R)-2-methyltetrahydro-2H-pyran-4-yl]-2-[(5-methyl-2H-tetrazol-2-yl)methyl]-1H-imidazo[4,5-c]quinoline]	10.4 nM	9.57 nM
C[C@@H]1C[C@H](n2c(Cc3ccc(C(F)(F)F)cn3)nc3cnc4ccc(C#N)cc4c32)CCO1 [Example 208, 1-[(2R,4R)-2-methyltetrahydro-2H-pyran-4-yl]-2-{[5-(trifluoromethyl)pyridin-2-yl]methyl}-1H-imidazo[4,5-c]quinoline-8-carbonitrile]	15 nM	14.3 nM
CCc1cnn(Cc2nc3cnc4ccc(C#N)cc4c3n2CC(C)(F)F)c1 [Example 209, 1-(2,2-difluoropropyl)-2-[(4-ethyl-1H-pyrazol-1-yl)methyl]-1H-imidazo[4,5-c]quinoline-8-carbonitrile]	8.02 nM	9.93 nM
COc1cnn(Cc2nc3cnc4ccc(C#N)cc4c3n2CC(C)(F)F)c1 [Example 210, 1-(2,2-difluoropropyl)-2-[(4-methoxy-1H-pyrazol-1-yl)methyl]-1H-imidazo[4,5-c]quinoline-8-carbonitrile]	7.04 nM	7.63 nM
Cc1cnn(Cc2nc3cnc4ccc(Cl)cc4c3n2[C@@H]2CCO[C@H](C)C2)c1 [Example 212, 8-chloro-2-[(4-methyl-1H-pyrazol-1-yl)methyl]-1-[(2R,4R)-2-methyltetrahydro-2H-pyran-4-yl]-1H-imidazo[4,5-c]quinoline]	8.47 nM	8.15 nM
Cc1cc(Cc2nc3cnc4ccc(C#N)cc4c3n2[C@@H]2CCN(C)C2)no1 [Example 213, 2-[(5-methyl-1,2-oxazol-3-yl)methyl]-1-[(3R)-1-methylpyrrolidin-3-yl]-1H-imidazo[4,5-c]quinoline-8-carbonitrile, formate salt]	3.38 nM	7.03 nM
C[C@@H]1C[C@H](n2c(C(F)(F)c3ccccn3)nc3cnc4ccc(Cl)cc4c32)CCO1 [Example 214, 8-chloro-2-[difluoro(pyridin-2-yl)methyl]-1-[(2R,4R)-2-methyltetrahydro-2H-pyran-4-yl]-1H-imidazo[4,5-c]quinoline, formate salt]	7.67 nM	9.67 nM
Cc1cc(Cc2nc3cnc4ccc(C#N)cc4c3n2C2CCC2)no1 [Example 216, 1-cyclobutyl-2-[(5-methyl-1,2-oxazol-3-yl)methyl]-1H-imidazo[4,5-c]quinoline-8-carbonitrile, formate salt]	26.6 nM	38.6 nM
